# Test results: patent publication US11192888B2, “Antibacterial compounds” (priority 2017, dated 2021)
# Read-outs that look alike come from different tables or passages of the source.
# Tests used:
# [1] = tested on: Clostridium ramosum DSM 1402; assay: microbe, parasite or virus in culture; settings: Thomasclavelia ramosa, DSM1402
# [2] = tested on: Bifidobacterium breve ATCC 15700; assay: microbe, parasite or virus in culture; settings: ATCC15700
# [3] = tested on: Bifidobacterium bifidum ATCC 11863; assay: microbe, parasite or virus in culture; settings: ATCC11863
# [4] = tested on: Propionibacterium acnes ATCC 6919; assay: microbe, parasite or virus in culture; settings: Cutibacterium acnes, ATCC6919
# [5] = tested on: Bacteroides fragilis ATCC 25285; assay: microbe, parasite or virus in culture; settings: ATCC25285
# [6] = tested on: Clostridium perfringens NCTC 8237; assay: microbe, parasite or virus in culture
# [7] = tested on: Actinomyces viscosus DSM 43327; assay: microbe, parasite or virus in culture; settings: DSM43327
# [8] = tested on: Clostridium sordellii ATCC 9714; assay: CLSI MIC, representative gut bacteria; assay type: cell-based; settings: Paraclostridium sordellii, ATCC9714, read-out: MIC
# Method: (§1) Comparative in vitro bacterial susceptibility to compounds 3, 9 and 10, vancomycin and metronidazole was determined using methods according to the Clinical and Laboratory Standard Institute (CLSI) approved guidelines (M7-A10, M11-A7 or M45-A2) for anaerobic and aerobic organisms.
# [9] = tested on: Clostridium difficile ATCC 43255; assay: CLSI MIC, representative gut bacteria; assay type: cell-based; settings: Clostridioides difficile, ATCC43255; Clostridium difficile ATCC 43255; read-out: MIC
# Method: as §1
# [10] = tested on: Clostridium innocuum DSM 1286; assay: microbe, parasite or virus in culture; settings: DSM1286
# [11] = tested on: Corynebacterium jeikeium NCTC 11914; assay: microbe, parasite or virus in culture; settings: NCTC11914
# [12] = tested on: Enterococcus faecalis ATCC 29212; assay: microbe, parasite or virus in culture; settings: ATCC29212
# [13] = tested on: Corynebacterium striatium NCTC 764; assay: microbe, parasite or virus in culture; settings: NCTC764
# [14] = tested on: Corynebacterium urealyticum NCTC 12011; assay: microbe, parasite or virus in culture; settings: NCTC12011
# [15] = tested on: Enterococcus faecium NCTC 12204; assay: microbe, parasite or virus in culture; settings: NCTC12204
# [16] = tested on: Lactobacillus rhamnosus ATCC 53103; assay: microbe, parasite or virus in culture; settings: Lacticaseibacillus rhamnosus, ATCC53103
# [17] = tested on: Staphylococcus aureus ATCC 29213; assay: microbe, parasite or virus in culture; settings: ATCC29213
# [18] = tested on: Clostridium difficile strains (21 clinical, 7 reference); assay: microbe, parasite or virus in culture; settings: Clostridioides difficile
# [19] = tested on: Clostridium difficile strains (21 clinical, 7 reference)
# [20] = tested on: C. difficile ATCC 43255 (aka VPI 10463; ribotype 087); assay: Mouse model of C. difficile-associated disease; assay type: in vivo, C57BL/6 mice
smiles,measurement,setting,value
Cc1ncc([N+](=O)[O-])n1CCO [Metronidazole],MIC,[1],4 µg/mL
same,MIC,[2],4 µg/mL
same,MIC,[3],2 µg/mL
same,MIC,[4],> 64 µg/mL
same,MIC,[5],0.5 µg/mL
same,MIC,[6],1 µg/mL
same,MIC,[7],2 µg/mL
same,MIC,[8],1 µg/mL
same,MIC,[9],0.5 µg/mL
same,MIC,[10],0.5 µg/mL
"CN[C@H](CC(C)C)C(=O)N[C@H]1C(=O)N[C@@H](CC(N)=O)C(=O)N[C@H]2C(=O)N[C@H]3C(=O)N[C@H](C(=O)N[C@H](C(=O)O)c4cc(O)cc(O)c4-c4cc3ccc4O)[C@H](O)c3ccc(c(Cl)c3)Oc3cc2cc(c3O[C@@H]2O[C@H](CO)[C@@H](O)[C@H](O)[C@H]2O[C@H]2C[C@](C)(N)[C@H](O)[C@H](C)O2)Oc2ccc(cc2Cl)[C@H]1O [Vancomycin, reference compound]",MIC,[11],1 µg/mL
same,MIC,[12],2 µg/mL
same,MIC,[13],0.5 µg/mL
same,MIC,[14],1 µg/mL
same,MIC,[15],> 64 µg/mL
same,MIC,[16],> 64 µg/mL
same,MIC,[17],1 µg/mL
same,MIC,[18],0.5 µg/mL
same,MIC50,[18],0.5 µg/mL
same,MIC90,[18],0.5 µg/mL
same,MIC,[18]; ATCC9689,0.5 µg/mL
same,MIC,[18]; ATCC13366,0.5 µg/mL
same,MIC,[18]; ATCC43255,0.5 µg/mL
same,MIC,[18]; ATCC700057,0.5 µg/mL
same,MIC,[18]; BAA1875,0.5 µg/mL
same,MIC,[18]; read-out: MIC40,0.5 µg/mL
same,MIC50,[19]; 28 C. difficile strains,0.5 µg/mL
same,MIC90,[19]; 28 C. difficile strains,0.5 µg/mL
same,MIC,[19]; C. difficile strain 630 (ribotype 012),0.5 µg/mL
same,MIC,[19]; C. difficile strain BI1-FDX^R,0.5 µg/mL
same,MIC,[19]; C. difficile strain Clin. 1,0.5 µg/mL
same,MIC,[19]; C. difficile strain Clin. 2,0.5 µg/mL
same,MIC,[19]; C. difficile strain Clin. 3,0.5 µg/mL
same,MIC,[19]; C. difficile strain Clin. 6,0.5 µg/mL
same,MIC,[19]; C. difficile strain Clin. 7,0.5 µg/mL
same,MIC,[19]; C. difficile strain Clin. 8,0.5 µg/mL
same,MIC,[19]; C. difficile strain Clin. 9,0.5 µg/mL
same,MIC,[19]; C. difficile strain Clin. 10,0.5 µg/mL
same,MIC,[19]; C. difficile strain Clin. 11,0.5 µg/mL
same,MIC,[19]; C. difficile strain Clin. 12,0.5 µg/mL
same,MIC,[19]; C. difficile strain Clin. 13,0.5 µg/mL
same,MIC,[19]; C. difficile strain Clin. 14,0.5 µg/mL
same,MIC,[19]; C. difficile strain Clin. 15,0.5 µg/mL
same,MIC,[19]; C. difficile strain Clin. 16,0.5 µg/mL
same,MIC,[19]; C. difficile strain Clin. 18,0.5 µg/mL
same,MIC,[19]; C. difficile strain Clin. 20,0.5 µg/mL
same,MIC,[19]; C. difficile strain Clin. 21,0.5 µg/mL
same,MIC,[19]; C. difficile strain Clin. 22,0.5 µg/mL
same,MIC,[19]; C. difficile strain Clin. 23,0.5 µg/mL
same,MIC,[19]; C. difficile strain Clin. 24,0.5 µg/mL
same,survival to the end of the study at day-21 post-infection,[20]; 10 mg/kg,survived to the end of the study
same,Mean survival,[20]; 10 mg/kg oral BD for 5 days,504.00 h
